The values below come from PMC11462456 (Chemical Science, 2024).

One data set addresses T1, CRBN (Homo sapiens, UniProt Q96SW2).
T1 construct: western blot analysis of the levels of CRBN and VHL E3 ligase in cell lysate; endogenous in cells; host or cells: HEK293 (ATCC)
Put plainly: E3 ligase homo-degradation by western blot, CRBN. It counts as cell-based. The following applies: HEK293 cells, 4 h, 0.1, 1 and 10 μM. From the text: (§1) 4. Biological experiments
(§2) Primary antibodies used for western blotting included anti-human BRD2(1:2000, rabbit monoclonal, Abcam, ab139690), anti-human BRD3 (1:1000, rabbit monoclonal, Abcam, ab264420), anti-human BRD4 (E2A7X) (1:1000, rabbit monoclonal, Cell Signaling Technology, #13440), anti-human VHL (1:1000, rabbit polyclonal, Cell Signaling Technology, #68547), anti-human CRBN (D8H3S) (1:1000, rabbit polyclonal, Cell Signaling Technology, #71810), anti-human alpha Tubulin, clone B-5-1-2 (1:5000, mouse monoclonal, Merck Life Science, # 32-2500).Secondary antibodies used for western blot included: anti-mouse horseradish peroxidase-linked antibody (1:3000, sheep, GE Healthcare Life Sciences, #NA931V), and anti-rabbit horseradish peroxidase-linked antibody (1:8000, donkey, GE Healthcare Life Sciences, #NA934V). Reagent for degradation assay and compounds […]
dr. Serge Van Calenbergh, Ghent University).
4.2 Cell lines and culture
HEK293, A549, SKOV-3, HCT116 cells (ATCC)were grown in DMEM (Gibco),and all cells were supplemented with 10% (v/v) fetal bovine serum (FBS) (Sigma), […] penicillin/streptomycin solution (Thermo Fisher Scientific) and maintained at 37 °C and 5% CO2 in a humidified atmosphere. All cells used were tested monthly using the Mycoalert Mycoplasma Detection Kit (cat. no. LT07-318, Lonza) to exclude mycoplasma contamination.
4.3 Degradation assays by Western blot
General method of Western blot: Lysates were sonicated and centrifuged at 4 °C at 20000 g for 15 min, and the supernatants were transferred to new tubes. Protein concentration of cell lysates was measured using the DC Protein Assay kit (BIO-RAD) following manufacturer's instructions. Cell lysates were mixed with reducing sample buffer (0.5 M Tris-HCl (pH 6.8), 43% glycerol, 9.2% SDS, 5% 2-mercaptoethanol, 5% bromophenol blue) and boiled for 5 min at 95°C. […]
(§3) Figure S5 Homo-degradation effect in Dual-ligand PROTACs. […] Subsequently, cell lysates were prepared and the protein levels of CRBN or VHL E3 ligase were assessed by Western blotting. […]
In general terms: Immunoblotting shows a protein as a band on a membrane.

For another data set, the target named is T2, VHL (Homo sapiens, UniProt P40337).
T2 construct: western blot analysis of the levels of CRBN and VHL E3 ligase in cell lysate; endogenous in cells; host or cells: HEK293 (ATCC)
The experiment in a line: E3 ligase homo-degradation by western blot, VHL. It counts as cell-based. The following applies: HEK293 cells, 4 h, 1 μM and 10 μM.
From the text: as §1, §2
dr. Serge Van Calenbergh, Ghent University). […]
General method of Western blot: Lysates were sonicated and centrifuged at 4 °C at 20000 g for 15 min, and the supernatants were transferred to new tubes. Protein concentration of cell lysates was measured using the DC Protein Assay kit (BIO-RAD) following manufacturer's instructions. […]
as §3

In another data set the target is T3, BRD4 (Homo sapiens, UniProt O60885).
T3 construct: BRD2, BRD3 and BRD4 protein levels were measured by western blot; endogenous in cells; host or cells: HEK293 (ATCC)
Put plainly: Western blot degradation of BRD4 in HEK293 cells. The data set is classed as cell-based. The note with it: HEK293 cells, 4 h, 0.1 μM to 1 nM, Fig. S2.

Data set [1] deals with HEK293, A549, HCT116 and SKOV-3. Put plainly: CellTiter-Glo metabolic activity, cell line panel. It counts as cell-based. The following applies: 48 h. Here is the method:
(§4) 4.4 Cell viability assay on 2D cells cultures
(§5) HEK293, HCT116, A549,andSKOV-3 cells were seeded in 96-well tissue culture plates at a density of 2000-3000 cells per well in 100 µl of growth medium and incubated overnight at 37 °C with 5% CO2. The following day, the cells were treated with various concentrations of compounds or 0.05% DMSO for 48 h. After treatment, add 100 μl of Cell Titer-Glo® 2.0 Reagent (cat. no. G9243, Promega) in each well, then the 96-well plates were put on an orbital shaker for 10 min and then allow the plate to incubate at room temperature for 10-20min to stabilize the luminescent signal. Luminescence readout (Gen5 Data Analysis Software v3.08.01) was performed to record luminescence.
(§6) (1 picture or pasted object on this page, not shown here)
A general note: ATP-based viability assays read luminescence as a measure of living cells.

For the next data set, the system named is HEK293 cells. Put plainly: CellTiter-Glo 2D metabolic activity assay, HEK293. The data set is classed as cell-based. The following applies: Homo sapiens, 2D culture, 48 h. Here is the method: Figure S5 Homo-degradation effect in Dual-ligand PROTACs. HEK293 cells were treated with all synthesized PROTACs or 2V-alkyne/2P-alkyne for 4 hours. Subsequently, cell lysates were prepared and the protein levels of CRBN or VHL E3 ligase were assessed by Western blotting. (A) Representative image of CRBN or VHL E3 ligase homo-degradation was screened for all PROTACs and commercial single-ligand PROTACs at a concentration of 0.1, 1 and 10 µM, respectively (equivalent volume of DMSO as control group). (B) Representative image of CRBN or VHL E3 ligase homo-degradation was screened for 2P-alkyne or 2V-alkyne at a concentration of 0.1, 1 and 10 µM, respectively (equivalent volume of DMSO as control group). Experiments were performed as three independent replicates.
as §4
HEK293, HCT116, A549,andSKOV-3 cells were seeded in 96-well tissue culture plates at a density of 2000-3000 cells per well in 100 µl of growth medium and incubated overnight at 37 °C with 5% CO2. The following day, the cells were treated with various concentrations of compounds or 0.05% DMSO for 48 h. […] Luminescence readout (Gen5 Data Analysis Software v3.08.01) was performed to record luminescence. […]

Data set [2] can be described thus: Parallel artificial membrane permeability assay (PAMPA). The data set is classed as in vitro ADME. The following applies: 10 uM, pH 7.4, four hours. Here is the method:
4.9 Study of membrane permeability of single-ligand and dual-ligand PROTACs Parallel artificial membrane permeability assay (PAMPA) is a non-cell based assay designed to predict passive, transcellular permeability of a test compound through a PVDF membrane filter pretreated with lipid. At a given pH a log Pe (log of effective permeability) can be determined by a UV spectrophotometer. […]
is carried out in the company of Eurofins Panlabs, 6 Research Park Dr. St. Charles, MO 63304, U.S.A. The results are attached as an excel file.
Sample preparation The test compound is prepared from a 10 mM DMSO stock solution and diluted to a single final concentration of 10 uM in donor buffer. The donor solution is placed in contact with the acceptor buffer at a single pH = 7.4 with the membrane in between and the sandwich is incubated for four hours at ambient temperature.
Reference compounds Ketoprofen, propranolol and furosemide. The reference compounds yield log Pe (10-6 cm/s) values that cover the typical range of the assay from high (Propranolol), mid (Ketoprofen) to low (Furosemide) permeability.
Analytical method UV/Vis spectrophotometer
The UV absorption is measured from 250 to 500 nm for both donor and acceptor plate.
Adjustments to the method may be made as necessary to improve detection or UV spectrum.
Data analysis The amount of compound UV absorbance is determined in the donor plate prior to starting the experiment for each compound. The UV absorbance was measured from the (1 picture or pasted object on this page, not shown here) […]
donor and acceptor plate after a four hour incubation time. The log Pe was calculated using […]
4.10 Statistical Analysis.
Data analyses were performed using GraphPad Prism 9 software. The results are presented as the mean ± standard deviation (SD) or standard error of mean (SEM). All statistical analyses were evaluated with one-way analysis of variance (ANOVAs), or unpaired Student’s t-test. The difference was considered statistically significant when P < 0.05.
For orientation: PAMPA measures passive passage across an artificial lipid membrane.

Another data set has as its system HCT116 cells. Put plainly: CellTiter-Glo 2D metabolic activity assay, HCT116. It counts as cell-based. The following applies: Homo sapiens, HCT-116, 2D culture, 48 h. Here is the method: as §4, §5, §6
The subject of a further data set is A549 spheroids. The experiment in a line: CellTiter-Glo 3D assay on spheroids. It counts as cell-based. The note with it: Homo sapiens, 72 h, read-out: EC50, spheroid metabolic activity. Here is the method: 4.5 Cell viability assay on 3D cell cultures
The single cell suspension containing 2.5 ×10^4 cells/ml of A549 or 2 ×10^4 cells/ml of HCT116 were seeded into the U-shaped, 384-well ULA plates (cat. no. MS-9384UZ, S-bio), each well containing 80 μl single cell suspension. The 384-well ULA plates were sealed with Breath-Easy semipermeable tape (cat. no. BEM-1, Diversified Biotech) to prevent evaporation. The spheroids were put into incubator and then cultured at 37 °C and 10% CO2. After 48h of spheroids formation, the spheroids were treated with various concentrations of compounds or 0.05% DMSO. After 72h treatment, each spheroid in the culture medium was pipetted into white micro-96-well plates (cat. no. 236108, ThermoFisher) and an equal volume of Cell Titer-Glo 3D (cat. no. G9683, Promega) reagent was added. Luminescence readouts were the same as described above for 2D culture.

Another data set relates to A549 cells. Put plainly: CellTiter-Glo 2D metabolic activity assay, A549. It counts as cell-based. The note with it: Homo sapiens, 2D culture, 48 h. Here is the method: as §4, §5, §6

Where only a bound is given, the exact number is not on record here.

T1 sequence (Q96SW2 whole entry): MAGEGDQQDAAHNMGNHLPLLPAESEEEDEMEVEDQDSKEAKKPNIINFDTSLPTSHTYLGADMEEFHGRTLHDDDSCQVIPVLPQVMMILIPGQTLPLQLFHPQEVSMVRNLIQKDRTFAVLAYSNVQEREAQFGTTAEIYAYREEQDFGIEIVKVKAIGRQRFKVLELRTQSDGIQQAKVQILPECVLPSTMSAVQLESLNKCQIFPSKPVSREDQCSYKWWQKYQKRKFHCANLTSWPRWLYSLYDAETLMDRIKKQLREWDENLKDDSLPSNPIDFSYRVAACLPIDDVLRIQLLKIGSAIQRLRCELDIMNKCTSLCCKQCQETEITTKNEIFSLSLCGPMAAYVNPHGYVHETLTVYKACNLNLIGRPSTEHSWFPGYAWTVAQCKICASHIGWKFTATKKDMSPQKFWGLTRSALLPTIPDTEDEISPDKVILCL
T2 sequence (P40337 whole entry): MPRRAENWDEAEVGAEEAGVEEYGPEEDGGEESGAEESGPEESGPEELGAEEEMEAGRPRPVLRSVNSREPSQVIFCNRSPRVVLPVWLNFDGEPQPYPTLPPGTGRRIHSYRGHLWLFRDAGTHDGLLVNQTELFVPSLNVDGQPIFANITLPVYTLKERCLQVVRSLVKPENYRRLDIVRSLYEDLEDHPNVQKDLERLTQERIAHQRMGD
Procedure for BRD4: HEK293, A549, SKOV-3, HCT116 cells (ATCC)were grown in DMEM (Gibco),and all cells were supplemented with 10% (v/v) fetal bovine serum (FBS) (Sigma), 100 mg/mL penicillin/streptomycin solution (Thermo Fisher Scientific) and maintained at 37 °C and 5% CO2 in a humidified atmosphere. All cells used were tested monthly using the Mycoalert
at 95°C. Proteins were separated by SDS–PAGE (SDS polyacrylamide gel electrophoresis) with 25–40 µg of total protein per well, transferred to 0.2-μm-pore nitrocellulose membranes (BIO-RAD), then blocked in 5%(w/v) milk in PBS and 0.5% Tween-20, and incubated overnight at 4°C with primary antibodies described in section 4.1. Secondary antibodies were added for 1h at room temperature after 3 times washing with blocking buffer. After 6 times of washing
with PBS (Thermo Fisher Scientific) and 0.5% Tween-20, Blots were detected using the Clarity Western ECL Substrate (BIO-RAD) and visualized on iBright CL 750 (Thermo Fisher Scientific) and images were analyzed using iBright Firmware 1.7.0.
4.3.1 Evaluation of the degradation capacity of PROTACs […]

For `Cc1sc2c(c1C)C(c1ccc(Cl)cc1)=N[C@@H](CC(=O)NCCOCCOCCOCCn1cc(CCC(=O)N[C@@H](CC(=O)NCCOCCOCCNc3cccc4c3C(=O)N(C3CCC(=O)NC3=O)C4=O)C(=O)NCCOCCOCCNc3cccc4c3C(=O)N(C3CCC(=O)NC3=O)C4=O)nn1)c1nnc(C)n1-2` (stereo partly drawn) [1J2P], the “CRBN level (homo-degradation)” value on CRBN is “did not induce any significant decrease of CRBN”.

On to `Cc1ncsc1-c1ccc(C(C)NC(=O)C2CC(O)CN2C(=O)C(NC(=O)COCCOCCNC(=O)CC(NC(=O)CCc2cn(CCOCCOCCOCCNC(=O)CC3N=C(c4ccc(Cl)cc4)c4c(sc(C)c4C)-n4c(C)nnc43)nn2)C(=O)NCCOCCOCC(=O)NC(C(=O)N2CC(O)CC2C(=O)NC(C)c2ccc(-c3scnc3C)cc2)C(C)(C)C)C(C)(C)C)cc1` (stereo not drawn) [1J2V], for which, at VHL, the VHL homo-degradation result is given as “did induce homo-degradation of VHL”.

For the compound `Cc1sc2c(c1C)C(c1ccc(Cl)cc1)=N[C@@H](CC(=O)NCCOCCOCCNC(=O)C[C@H](NC(=O)COCCOCCOCCOCCn1cc(CNc3cccc4c3C(=O)N(C3CCC(=O)NC3=O)C4=O)nn1)C(=O)NCCOCCOCCNC(=O)C[C@@H]1N=C(c3ccc(Cl)cc3)c3c(sc(C)c3C)-n3c(C)nnc31)c1nnc(C)n1-2` (stereo partly drawn) [2J1P], the “protein degradation potency, controls with similar linker length” value on BRD4 is on record as “could still potently degrade the BRD proteins”. For the same compound, the “metabolic inhibition, comparison” value in [1] was “higher metabolic inhibition compared to single-ligand PROTACs”.

As for `Cc1ncsc1-c1ccc(C(C)NC(=O)C2CC(O)CN2C(=O)C(NC(=O)CCc2cn(CCOCCOCCOCCOCC(=O)NC(CC(=O)NCCOCCOCCNC(=O)CC3N=C(c4ccc(Cl)cc4)c4c(sc(C)c4C)-n4c(C)nnc43)C(=O)NCCOCCOCCNC(=O)CC3N=C(c4ccc(Cl)cc4)c4c(sc(C)c4C)-n4c(C)nnc43)nn2)C(C)(C)C)cc1` (stereo not drawn) [2J1V], the “protein degradation potency, controls with similar linker length” value on BRD4 was “could still potently degrade the BRD proteins”. Also, the “metabolic inhibition, comparison” value in data set [1] is “higher metabolic inhibition compared to single-ligand PROTACs”.

Take `C#CCCC(=O)N[C@@H](CC(=O)NCCOCCOCCNc1cccc2c1C(=O)N(C1CCC(=O)NC1=O)C2=O)C(=O)NCCOCCOCCNc1cccc2c1C(=O)N(C1CCC(=O)NC1=O)C2=O` (stereo partly drawn) [2P-alkyne]: the “CRBN level (homo-degradation)” value on CRBN is “did not induce any degradation of CRBN”.

In the case of `Cc1sc2c(c1C)C(c1ccc(Cl)cc1)=NC(CC(=O)NCCCCNC(=O)COc1cccc3c1C(=O)N(C1CCC(=O)NC1=O)C3=O)c1nnc(C)n1-2` (stereo not drawn) [dBET1], the EC50 was 900 nM in the data set on HEK293 cells, greater than 10000 nM in the data set with HCT116 cells, 7000 nM in the data set on A549 spheroids and 2000 nM in the data set with A549 cells. The membrane permeability entry in data set [2] is on record as “very limited membrane permeability”.

In general, EC50 refers to the midpoint of the concentration-response curve.
